Laboratory results reported in US5428059A, “Benzopyran derivatives and an anti-allergic agent possessing the same as the active ingredient” (Dainippon Ink & Chemicals, Inc., priority 1991, dated 1995).

Test system: Hartley-type male guinea pigs
Assay: Guinea Pig Homogeneous Skin Passive Anaphylaxis Assay (PCA reaction)
Type: in vivo, guinea pig (Hartley-type)
Settings: 10 mg/kg oral, 48 h after sensitization; for inhibition in vivo at 10 mg/kg: Cavia porcellus, read-out: Allergic reaction inhibitory index (%)
In short: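 Inhibition % is derived from Evans Blue leakage area (mm^2, product of spot diameters) read 30 min after i.v. OVA/dye challenge. Beforehand, male Hartley guinea pigs (250~300 g) were passively sensitized intradermally with 120-fold-diluted anti-OVA serum and, after 48 h, received test compound 10 mg/kg p.o.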

With CCCCCCCCCCOc1c(OC)c(=O)oc2cc(OC)ccc12 [Compound 36, 3,7-(dimethoxy)-4-(decyloxy)-2H-1-benzopyran-2-one] the inhibition in vivo at 10 mg/kg was 30%.

In the case of COc1c(OC)c2ccc(O)cc2oc1=O [Compound 17, 3,4-(dimethoxy)-7-hydroxy-2H-1-benzopyran-2-one], the inhibition in vivo at 10 mg/kg is reported as 31%.

Work on COc1ccc2c(OC/C=C(\C)CCC=C(C)C)c(OC/C=C(\C)CCC=C(C)C)c(=O)oc2c1 [Compound 43, 3,4-(digeranyloxy)-7-(methoxy)-2H-1-benzopyran-2-one] yielded an inhibition in vivo at 10 mg/kg of 30%.

CCCCCCCCCCOc1c(O)c2ccc(OC(C)C)cc2oc1=O [Compound 48, 3-(decyloxy)-4-hydroxy-7-(isopropoxy)-2H-1-benzopyran-2-one] gave an inhibition in vivo at 10 mg/kg of 42%.

With CC(C)=CCC/C(C)=C/COc1c(O)c2c(OC(C)C)cccc2oc1=O [Compound 219, 3-(geranyloxy)-4-hydroxy-5-(isopropoxy)-2H-1-benzopyran-2-one] the inhibition in vivo at 10 mg/kg was 36%.

CC(C)=CCC/C(C)=C/COc1c(O)c2c(OC/C=C(\C)CCC=C(C)C)cccc2oc1=O [Compound 253, 3,5-(digeranyloxy)-4-hydroxy-2H-1-benzopyran-2-one] was tested, and the inhibition in vivo at 10 mg/kg was 33%.

For CCCCCCCCCCOc1cccc2c(OCCCC)c(O)c(=O)oc12 [Compound 148, 3-hydroxy-4-(butoxy)-8-(decyloxy)-2H-1-benzopyran-2-one], the inhibition in vivo at 10 mg/kg was 31%.

Work on CC(C)Oc1ccc2c(OC(=O)c3ccccc3)c(OC(=O)c3ccccc3)c(=O)oc2c1 [Compound 47, 3,4-(dibenzoyloxy)-7-(isopropoxy)-2H-1-benzopyran-2-one] yielded an inhibition in vivo at 10 mg/kg of 31%.

With COc1cccc2c(OC(C)C)c(OC/C=C(\C)CCC=C(C)C)c(=O)oc12 [Compound 124, 3-(geranyloxy)-4-(isopropoxy)-8-(methoxy)-2H-1-benzopyran-2-one] the inhibition in vivo at 10 mg/kg was 33%.

In the case of CC(C)=CCC/C(C)=C/COc1c(OC(C)C)c(=O)oc2c(O)cccc12 [Compound 108, 3-(isopropoxy)-4-(geranyloxy)-8-hydroxy-2H-1-benzopyran-2-one], the inhibition in vivo at 10 mg/kg is reported as 32%.

COc1c(OC(C)=O)c2cccc(O)c2oc1=O [Compound 101, 3-(methoxy)-4-(acetoxy)-8-hydroxy-2H-1-benzopyran-2-one] was tested, and the inhibition in vivo at 10 mg/kg was 30%.

COc1c(OC/C=C(\C)CCC=C(C)C)c(=O)oc2cc(O)ccc12 [Compound 24, 3-(geranyloxyl)-4-(methoxy)-7-hydroxy-2H-1-benzopyran-2-one] was tested, and the inhibition in vivo at 10 mg/kg was 33%.

For CCCCCCCCCCOc1cccc2oc(=O)c(O)c(OC(C)=O)c12 [Compound 231, 3-hydroxy-4-(acetoxy)-5-(decyloxy)-2H-1-benzopyran-2-one], the inhibition in vivo at 10 mg/kg was 31%.

For CCCCCCCCCCOc1ccc2c(OC/C=C(\C)CCC=C(C)C)c(OC(C)C)c(=O)oc2c1 [Compound 72, 3-(isopropoxy)-4-(geranyloxy)-7-(decyloxy)-2H-1-benzopyran-2-one], the inhibition in vivo at 10 mg/kg was 34%.

In the case of CCCCCCCCCCOc1cccc2oc(=O)c(OC(C)C)c(OC/C=C(\C)CCC=C(C)C)c12 [Compound 242, 3-(isopropoxy)-4-(geranyloxy)-5-(decyloxy)-2H-1-benzopyran-2-one], the inhibition in vivo at 10 mg/kg is reported as 30%.

COc1c(OC/C=C(\C)CCC=C(C)C)c(=O)oc2c(OC/C=C(\C)CCC=C(C)C)cccc12 [Compound 171, 3,8-(digeranyloxy)-4-(methoxy)-2H-1-benzopyran-2-one] showed an inhibition in vivo at 10 mg/kg of 33%.

Work on CC(=O)Oc1c(OC(C)C)c2c(O)cccc2oc1=O [Compound 185, 3-(acetoxy)-4-(isopropoxy)-5-hydroxy-2H-1-benzopyran-2-one] yielded an inhibition in vivo at 10 mg/kg of 30%.

With CC(C)=CCC/C(C)=C/COc1c(OC(=O)c2ccccc2)c(=O)oc2cccc(O)c12 [Compound 190, 3-(benzoyloxy)-4-(geranyloxy)-5-hydroxy-2H-1-benzopyran-2-one] the inhibition in vivo at 10 mg/kg was 31%.

For CCCCCCCCCCOc1c(O)c2cccc(O)c2oc1=O [Compound 97, 3-(decyloxy)-4,8-(dihydroxy)-2H-1-benzopyran-2-one], the inhibition in vivo at 10 mg/kg was 34%.

CCCCCCCCCCOc1c(OC(C)C)c2cccc(OC/C=C(\C)CCC=C(C)C)c2oc1=O [Compound 164, 3-(decyloxy)-4-(isopropoxy)-8-(geranyloxy)-2H-1-benzopyran-2-one] showed an inhibition in vivo at 10 mg/kg of 33%.

Compound CC(=O)Oc1c(OC(C)C)c2cccc(O)c2oc1=O [Compound 100, 3-(acetoxy)-4-(isopropoxy)-8-hydroxy-2H-1-benzopyran-2-one] has an inhibition in vivo at 10 mg/kg of 30%.

CC(=O)Oc1c(OC(=O)c2ccccc2)c(=O)oc2c(OC/C=C(\C)CCC=C(C)C)cccc12 [Compound 161, 3-(benzoyloxy)-4-(acetoxy)-8-(geranyloxy)-2H-1-benzopyran-2-one] showed an inhibition in vivo at 10 mg/kg of 31%.

In the case of CC(C)=CCC/C(C)=C/COc1c(O)c(=O)oc2c(O)cccc12 [Compound 103, 3,8-(dihydroxy)-4-(geranyloxy)-2H-1-benzopyran-2-one], the inhibition in vivo at 10 mg/kg is reported as 30%.

O=C(Oc1c(O)c(=O)oc2cc(O)ccc12)c1ccccc1 [Compound 8, 4-(benzoyloxy)-3,7-(dihydroxy)-2H-1-benzopyran-2-one] showed an inhibition in vivo at 10 mg/kg of 40%.

COc1cccc2oc(=O)c(O)c(OC/C=C(\C)CCC=C(C)C)c12 [Compound 204, 3-hydroxy-4-(geranyloxy)-5-(methoxy)-2H-1-benzopyran-2-one] showed an inhibition in vivo at 10 mg/kg of 30%.

For COc1c(OC/C=C(\C)CCC=C(C)C)c(=O)oc2cc(OC/C=C(\C)CCC=C(C)C)ccc12 [Compound 87, 3,7-(digeranyloxy)-4-(methoxy)-2H-1-benzopyran-2-one], the inhibition in vivo at 10 mg/kg was 31%.

CCCCCCCCCCOc1ccc2c(OC(C)=O)c(OC/C=C(\C)CCC=C(C)C)c(=O)oc2c1 [Compound 69, 3-(geranyloxy)-4-(acetoxy)-7-(decyloxy)-2H-1-benzopyran-2-one] was tested, and the inhibition in vivo at 10 mg/kg was 33%.

Work on CCCCCCCCCCOc1ccc2c(O)c(OC(=O)c3ccccc3)c(=O)oc2c1 [Compound 58, 3-(benzoyloxy)-4-hydroxy-7-(decyloxy)-2H-1-benzopyran-2-one] yielded an inhibition in vivo at 10 mg/kg of 38%.

O=c1oc2c(O)cccc2c(O)c1O [Compound 93, 3,4,8-trihydroxy-2H-1-benzopyran-2-one] showed an inhibition in vivo at 10 mg/kg of 42%.

Compound CC(C)=CCC/C(C)=C/COc1c(O)c2cccc(OC/C=C(\C)CCC=C(C)C)c2oc1=O [Compound 167, 3,8-(digeranyloxy)-4-hydroxy-2H-1-benzopyran-2-one] has an inhibition in vivo at 10 mg/kg of 30%.

CCCCCCCCCCOc1ccc2c(OC)c(OC(=O)c3ccccc3)c(=O)oc2c1 [Compound 65, 3-(benzoyloxy)-4-(methoxy)-7-(decyloxy)-2H-1-benzopyran-2-one] showed an inhibition in vivo at 10 mg/kg of 32%.

O=C(Oc1c(O)c2cc(O)ccc2oc1=O)c1ccccc1 [Compound 262, 3-(benzoyloxy)-4,6-(dihydroxy)-2H-1-benzopyran-2-one] was tested, and the inhibition in vivo at 10 mg/kg was 30%.

With CC(C)=CCC/C(C)=C/COc1ccc2c(OC(C)C)c(O)c(=O)oc2c1 [Compound 79, 3-hydroxy-4-(isopropoxy)-7-(geranyloxy)-2H-1-benzopyran-2-one] the inhibition in vivo at 10 mg/kg was 32%.

Compound CCCCCCCCCCOc1ccc2oc(=O)c(O)c(OC)c2c1 [Compound 277, 3-(hydroxy)-4-(methoxy)-6-(decyloxy)-2H-1-benzopyran-2-one] has an inhibition in vivo at 10 mg/kg of 35%.

Work on CCCCCCCCCCOc1cccc2oc(=O)c(OC(=O)c3ccccc3)c(O)c12 [Compound 229, 3-(benzoyloxy)-4-hydroxy-5-(decyloxy)-2H-1-benzopyran-2-one] yielded an inhibition in vivo at 10 mg/kg of 37%.

For CCCCCCCCCCOc1cccc2oc(=O)c(OC(C)=O)c(OC(=O)c3ccccc3)c12 [Compound 232, 3-(acetoxy)-4-(benzoyloxy)-5-(decyloxy)-2H-1-benzopyran-2-one], the inhibition in vivo at 10 mg/kg was 32%.

In the case of CCCCOc1c(O)c2c(OC)cccc2oc1=O [Compound 225, 3-(butoxy)-4-hydroxy-5-(methoxy)-2H-1-benzopyran-2-one], the “Allergic reaction inhibitory index (%)” value is reported as 35%.

With CCCCCCCCCCOc1cccc2c(O)c(O)c(=O)oc12 [Compound 144, 3,4-(dihydroxy)-8-(decyloxy)-2H-1-benzopyran-2-one] the inhibition in vivo at 10 mg/kg was 34%.

For CC(=O)Oc1c(OC(C)=O)c2cccc(OC(C)=O)c2oc1=O [Compound 95, 3,4,8-(triacetoxy)-2H-1-benzopyran-2-one], the inhibition in vivo at 10 mg/kg was 30%.

CCCCCCCCCCOc1cccc2c(OC)c(OC/C=C(\C)CCC=C(C)C)c(=O)oc12 [Compound 155, 3-(geranyloxy)-4-(methoxy)-8-(decyloxy)-2H-1-benzopyran-2-one] showed an inhibition in vivo at 10 mg/kg of 30%.

Compound CCCCCCCCCCOc1c(O)c2c(OC(C)C)cccc2oc1=O [Compound 214, 3-(decyloxy)-4-hydroxy-5-(isopropoxy)-2H-1-benzopyran-2-one] has an inhibition in vivo at 10 mg/kg of 38%.

With CCCCCCCCCCOc1ccc2c(OC)c(OC/C=C(\C)CCC=C(C)C)c(=O)oc2c1 [Compound 71, 3-(geranyloxy)-4-(methoxy)-7-(decyloxy)-2H-1-benzopyran-2-one] the inhibition in vivo at 10 mg/kg was 30%.

For CCCCOc1cccc2oc(=O)c(O)c(O)c12 [Compound 227, 3,4-(dihydroxy)-5-(butoxy)-2H-1-benzopyran-2-one], the inhibition in vivo at 10 mg/kg was 50%.

With CC(C)=CCC/C(C)=C/COc1c(OC(=O)c2ccccc2)c(=O)oc2c(OC/C=C(\C)CCC=C(C)C)cccc12 [Compound 170, 3-(benzoyloxy)-4,8-(digeranyloxy)-2H-1-benzopyran-2-one] the inhibition in vivo at 10 mg/kg was 31%.

With CC(C)=CCC/C(C)=C/COc1cccc2oc(=O)c(OC(=O)c3ccccc3)c(OC(C)C)c12 [Compound 251, 3-(benzoyloxy)-4-(isopropoxy)-5-(geranyloxy)-2H-1-benzopyran-2-one] the inhibition in vivo at 10 mg/kg was 30%.

Compound CCCCCCCCCCOc1cccc2oc(=O)c(OC/C=C(\C)CCC=C(C)C)c(OC)c12 [Compound 241, 3-(geranyloxy)-4-(methoxy)-5-(decyloxy)-2H-1-benzopyran-2-one] has an inhibition in vivo at 10 mg/kg of 32%.
